Results on three compounds are retold here after US20090281111A1 (Fabre-Kramer Pharmaceuticals, Inc., priority 2008, published 2009).

Molecules are shown by their SMILES.

A short description of data set [1]: 3-OH gepirone concentrations in plasma after administration of gepirone. In kind it is in vivo. As to conditions: human subjects administered a dose of gepirone, FIG. 2. As to the method:
“Time (H)” represents time after administration.
Each sample corresponds to a 0.5 ml plasma sample, extracted with 6 ml of (2:1) (v/v) hexane:chloroform for 1 hour. After separation by centrifuge, the organic layer is transferred to a 10 ml conical tube and 90 ul of 1% formic acid is added. The tube is vortexed for 10 minutes and centrifuged for 5 minutes. About 80 ul of the formic acid layer is transferred into injection vials for HPLC/MS analysis.

The target of data set [2] is T1, 5-HT1A receptor (Homo sapiens, UniProt P08908).
T1 sequence (P08908 1-422): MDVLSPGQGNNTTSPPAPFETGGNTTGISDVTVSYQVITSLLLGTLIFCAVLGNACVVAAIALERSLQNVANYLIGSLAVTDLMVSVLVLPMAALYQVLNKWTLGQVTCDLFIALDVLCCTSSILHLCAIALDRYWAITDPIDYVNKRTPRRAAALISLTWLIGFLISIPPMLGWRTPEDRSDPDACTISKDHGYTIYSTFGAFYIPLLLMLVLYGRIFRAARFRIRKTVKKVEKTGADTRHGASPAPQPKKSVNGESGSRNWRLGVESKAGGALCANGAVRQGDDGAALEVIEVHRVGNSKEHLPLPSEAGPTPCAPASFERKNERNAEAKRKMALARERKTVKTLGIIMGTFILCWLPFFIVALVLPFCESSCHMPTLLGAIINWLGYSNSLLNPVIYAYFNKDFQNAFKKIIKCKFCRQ
As to conditions: cited from earlier work.

The subject of data set [3] is dopaminergic receptors. The conditions noted are these: cited from earlier work.
The test system of data set [4] is alpha-adrenergic receptors. The conditions noted are these: Alpha 2A, Alpha 2B, Alpha 2C tested; cited from earlier work.
Data set [5] deals with T2, Alpha 2C receptor (Homo sapiens, UniProt P18825).
T2 sequence (P18825 1-462): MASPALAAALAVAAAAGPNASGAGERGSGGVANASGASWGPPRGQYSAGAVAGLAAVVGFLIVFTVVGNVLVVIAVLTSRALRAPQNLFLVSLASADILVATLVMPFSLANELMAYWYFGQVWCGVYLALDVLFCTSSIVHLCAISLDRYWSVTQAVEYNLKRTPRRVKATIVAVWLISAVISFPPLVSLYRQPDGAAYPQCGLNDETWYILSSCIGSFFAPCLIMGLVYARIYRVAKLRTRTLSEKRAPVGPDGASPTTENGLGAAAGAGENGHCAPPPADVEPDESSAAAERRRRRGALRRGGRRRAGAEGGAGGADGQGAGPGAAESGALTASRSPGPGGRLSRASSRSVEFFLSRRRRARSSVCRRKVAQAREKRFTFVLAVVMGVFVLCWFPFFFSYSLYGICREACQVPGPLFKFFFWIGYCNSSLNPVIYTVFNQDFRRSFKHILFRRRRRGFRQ
The conditions noted are these: cited from earlier work.

For data set [6] the following is noted: cited from earlier work; for half-life: in vivo.
Data set [7] concerns the target 5-HT7 receptor (Homo sapiens, UniProt P34969). The conditions noted are these: compared with 3-OH gepirone; cited from earlier work.
For data set [8], the target named is 5-HT2A receptor (Homo sapiens, UniProt P28223). The conditions noted are these: compared with 3-OH gepirone; cited from earlier work.
Chain of 5-HT2A receptor (P28223 whole entry): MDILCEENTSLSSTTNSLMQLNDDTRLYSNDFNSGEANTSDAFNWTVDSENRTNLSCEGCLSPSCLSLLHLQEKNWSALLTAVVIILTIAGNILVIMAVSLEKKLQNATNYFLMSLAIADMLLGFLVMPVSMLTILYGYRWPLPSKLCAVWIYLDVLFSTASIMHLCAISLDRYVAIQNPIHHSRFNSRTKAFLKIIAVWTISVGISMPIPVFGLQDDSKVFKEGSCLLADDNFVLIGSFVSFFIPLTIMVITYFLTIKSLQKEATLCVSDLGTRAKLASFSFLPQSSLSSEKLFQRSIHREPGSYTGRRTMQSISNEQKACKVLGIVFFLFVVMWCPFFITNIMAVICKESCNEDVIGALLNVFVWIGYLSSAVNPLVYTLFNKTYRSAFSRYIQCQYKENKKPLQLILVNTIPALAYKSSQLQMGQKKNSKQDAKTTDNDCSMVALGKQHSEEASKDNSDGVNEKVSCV

Chain of 5-HT7 receptor (P34969 whole entry): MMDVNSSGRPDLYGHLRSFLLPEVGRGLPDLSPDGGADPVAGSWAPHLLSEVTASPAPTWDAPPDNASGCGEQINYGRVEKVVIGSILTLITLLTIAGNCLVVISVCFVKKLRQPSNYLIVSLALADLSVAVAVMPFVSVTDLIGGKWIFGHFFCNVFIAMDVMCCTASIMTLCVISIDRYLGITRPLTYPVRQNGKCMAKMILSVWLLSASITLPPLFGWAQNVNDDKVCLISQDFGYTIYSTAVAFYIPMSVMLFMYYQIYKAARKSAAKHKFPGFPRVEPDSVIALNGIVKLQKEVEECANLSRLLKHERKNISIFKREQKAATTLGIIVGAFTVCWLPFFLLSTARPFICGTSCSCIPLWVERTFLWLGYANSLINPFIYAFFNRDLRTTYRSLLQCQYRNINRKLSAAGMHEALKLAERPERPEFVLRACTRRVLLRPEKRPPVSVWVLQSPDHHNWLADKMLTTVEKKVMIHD

With `CC1(C)CC(=O)N(CCCCN2CCN(c3ncccn3)CC2)C(=O)C1O` (centres unmarked) [3-OH gepirone, 4,4,-dimethyl-3-hydroxy-1-[4-[4-(2-pyrimidinyl)-1-piperazinyl]butyl]-2,6-piperidinedione], in data set [1], the “plasma levels of 3-OH gepirone over time” value was “available quickly and persists in the plasma for extended periods of time”. Moreover, the “selectivity among the serotonergic receptor subtypes” value in data set [2] is “highly selective for the 5-HT1A receptor”. For the same compound, in data set [3], the dopaminergic binding result is “insignificant dopaminergic binding”. In data set [4], the “affinity at alpha-adrenergic receptors” value is “did not display significant affinity”. Also, the “binding at the Alpha 2C receptor” value in data set [5] is recorded as “weak binding”.
In the case of `O=C1CC2(CCCC2)CC(=O)N1CCCCN1CCN(c2ncccn2)CC1` [buspirone], the half-life result in data set [6] is “very short”. Besides, in data set [7], the “interaction with the 5-HT7 receptor” value was “much more specifically and at lower concentrations than does 3-OH gepirone”.
Turning to `CC1(C)CC(=O)N(CCCCN2CCN(c3ncccn3)CC2)C(=O)C1` [gepirone, 4-dimethyl-1-[4-[4-(2-pyrimidinyl)-1-piperazinyl]butyl]-2,6-piperidinedione], the bioavailability in data set [6] (delivered orally) is listed as 14-18%. Besides, the half-life entry in data set [6] was “very short”. Further, in data set [7], the “interaction with the 5-HT7 receptor” value is “much more specifically and at lower concentrations than does 3-OH gepirone”. The “interaction with the 5-HT2A receptor” value in data set [8] is “much more specifically and at lower concentrations than does 3-OH gepirone”.
